Results reported in patent US8648066B2 (Exelixis, Inc., priority 2009, dated 2014).

Target: mTOR/GbL/Raptor (mTORC1) (Homo sapiens, UniProt P42345)
Experiment: mTOR/GbL/Raptor (mTORC1) ELISA assay
Assay type: biochemical
Conditions: phosphorylation of 4E-BP1; 0.2 nM mTORC1, 10 μM ATP; read-out: IC50 in this assay (mTORC1 ELISA)
Protocol: The measurement of mTORC1 enzyme activity was performed in an ELISA assay format following the phosphorylation of 4E-BP1 protein. All experiments were performed in the 384-well format. Generally, 0.5 μL DMSO containing varying concentrations of the test Compound was mixed with 15 μL enzyme solution. Kinase reactions were initiated with the addition of 15 μL of substrates-containing solution. The assay conditions were as follows; 0.2 nM mTORC1, 10 μM ATP and 50 nM NHis-tagged 4E-BP1 in 20 mM Hepes, pH 7.2, 1 mM DTT, 50 mM NaCl, 10 mM MnCl2, 0.02 mg/mL BSA, 0.01% CHAPS, 50 mM β-glycerophosphate. Following an incubation of 120 minutes at ambient temperature, 20 μL of the reaction volume was transferred to a Ni-Chelate-coated 384-well plate. The binding step of the 4E-BP1 protein proceeded for 60 minutes, followed by washing 4 times each with 50 μL of Tris-buffered saline solution (TBS). Anti-phospho-4E-BP1 rabbit-IgG (20 μL, 1:5000) in 5% BSA-TBST (0.2% Tween-20 in TBS) was added and further incubated for 60 minutes. Incubation with a secondary HRP-tagged anti-IgG was similarly performed after washing off the primary antibody (4 washes of 50 μL). Following the final wash step with TBST, 20 μL of SuperSignal ELISA Femto (Pierce Biotechnology) was added and the luminescence measured using an EnVision plate reader.

IC50 | SMILES
1000 to 2000 nM | c1ccc2c(N3CCOc4ccc(-c5ccc6cn[nH]c6c5)cc4C3)ccnc2c1 [Example 136, 7-(1H-indazol-6-yl)-4-quinolin-4-yl-2,3,4,5-tetrahydro-1,4-benzoxazepine]
≤ 10 nM | Cc1ncnc(N2CCOc3ccc(-c4ccc5nc(N)[nH]c5c4)cc3C2)c1Cc1ccc(F)cc1 [Example 189, 6-(4-{5-[(4-fluorophenyl)methyl]-6-methylpyrimidin-4-yl}-2,3,4,5-tetrahydro-1,4-benzoxazepin-7-yl)-1H-benzimidazol-2-amine]
50 to 250 nM | CC(C)(O)CC[S+]([O-])c1cc(-c2ccc3c(c2)CN(c2ncnc4c2CC(C)(C)CC4)CCO3)cnc1N (stereo not shown) [Example 458, 4-({2-amino-5-[4-(6,6-dimethyl-5,6,7,8-tetrahydroquinazolin-4-yl)-2,3,4,5-tetrahydro-1,4-benzoxazepin-7-yl]pyridin-3-yl}sulfinyl)-2-methylbutan-2-ol]
≤ 10 nM | CN(C)Cc1nc2c(c(N3CCOc4ccc(-c5ccc(-c6ncc[nH]6)cc5)cc4C3)n1)CC(C)(C)CC2 [Example 325]
≤ 10 nM | Cc1nc2ncc(-c3ccc4c(c3)CN(c3nc(CO)nc5c3CC(C)(C)CC5)CCO4)cc2[nH]1 [Example 312, {6,6-dimethyl-4-[7-(2-methyl-1H-imidazo[4,5-b]pyridin-6-yl)-2,3-dihydro-1,4-benzoxazepin-4(5H)-yl]-5,6,7,8-tetrahydroquinazolin-2-yl}methanol]
10 to 50 nM | Cc1nc(C)c(CC2CC2)c(N2CCOc3ccc(-c4cnc5nc(C)[nH]c5c4)cc3C2)n1 [Example 492, 4-[5-(cyclopropylmethyl)-2,6-dimethylpyrimidin-4-yl]-7-(2-methyl-1H-imidazo[4,5-b]pyridin-6-yl)-2,3,4,5-tetrahydro-1,4-benzoxazepine]
10 to 50 nM | CCNc1nc2ncc(-c3ccc4c(c3)CN(c3nc(C)nc5cc(OC)ccc35)CCO4)cc2[nH]1 [Example 642, N-ethyl-6-{4-[2-methyl-7-(methyloxy)quinazolin-4-yl]-2,3,4,5-tetrahydro-1,4-benzoxazepin-7-yl}-1H-imidazo[4,5-b]pyridin-2-amine]
≤ 10 nM | CC1(C)CCc2ncnc(N3CCOc4ccc(-c5cnc(N)c(S(=O)(=O)N6CCC(C)(N)C6)c5)cc4C3)c2C1 (stereo not shown) [Example 440, 3-[(3-amino-3-methylpyrrolidin-1-yl)sulfonyl]-5-[4-(6,6-dimethyl-5,6,7,8-tetrahydroquinazolin-4-yl)-2,3,4,5-tetrahydro-1,4-benzoxazepin-7-yl]pyridin-2-amine]

The next lines start with the compound.

SMILES | IC50
CC1(C)CCc2ncnc(N3CCOc4ccc(-c5cnc(N)c(S(=O)(=O)NC(C)(C)CO)c5)cc4C3)c2C1 [Example 367, 2-amino-5-[4-(6,6-dimethyl-5,6,7,8-tetrahydroquinazolin-4-yl)-2,3,4,5-tetrahydro-1,4-benzoxazepin-7-yl]-N-(2-hydroxy-1,1-dimethylethyl)pyridine-3-sulfonamide] | 10 to 50 nM
CN(C)S(=O)(=O)c1cc(-c2ccc3c(c2)CN(c2ncnc4c2CC(C)(C)CC4)CCO3)cnc1N [Example 380, 2-amino-5-[4-(6,6-dimethyl-5,6,7,8-tetrahydroquinazolin-4-yl)-2,3,4,5-tetrahydro-1,4-benzoxazepin-7-yl]-N,N-dimethylpyridine-3-sulfonamide] | 10 to 50 nM
Cc1nc2cc(-c3ccc4c(c3)CN(c3nc(CO)nc(C)c3Cc3ccc(F)cc3)CCO4)ccc2[nH]1 [Example 310, {5-[(4-fluorophenyl)methyl]-4-methyl-6-[7-(2-methyl-1H-benzimidazol-5-yl)-2,3-dihydro-1,4-benzoxazepin-4(5H)-yl]pyrimidin-2-yl}methanol] | ≤ 10 nM
CC1(C)CCc2ncnc(N3CCOc4ccc(-c5cnc(N)c(CS(C)(=O)=O)c5)cc4C3)c2C1 [Example 517, 5-[4-(6,6-dimethyl-5,6,7,8-tetrahydroquinazolin-4-yl)-2,3,4,5-tetrahydro-1,4-benzoxazepin-7-yl]-3-[(methylsulfonyl)methyl] pyridin-2-amine] | 10 to 50 nM
CN(C)S(=O)(=O)c1cncc(-c2ccc3c(c2)CN(c2ncnc4c2CC(C)(C)CC4)CCO3)c1 [Example 521, 5-[4-(6,6-dimethyl-5,6,7,8-tetrahydroquinazolin-4-yl)-2,3,4,5-tetrahydro-1,4-benzoxazepin-7-yl]-N,N-dimethylpyridine-3-sulfonamide] | 250 to 1000 nM
CNC(=O)c1ccc(-c2ccc3c(c2)CN(c2ncnc(C)c2Cc2ccc(F)cc2)CCO3)cc1 [Example 171, 4-(4-{5-[(4-fluorophenyl)methyl]-6-methylpyrimidin-4-yl}-2,3,4,5-tetrahydro-1,4-benzoxazepin-7-yl)-N-methylbenzamide] | ≤ 10 nM
Cc1nc2ncc(-c3ccc4c(c3)CN(c3ncnc5c3CCC(C)(C)C5)CCO4)cc2[nH]1 [Example 484, 4-(7,7-dimethyl-5,6,7,8-tetrahydroquinazolin-4-yl)-7-(2-methyl-1H-imidazo[4,5-b]pyridin-6-yl)-2,3,4,5-tetrahydro-1,4-benzoxazepine] | ≤ 10 nM
Cc1nc2cc(-c3ccc4c(c3)CN(c3nc(CN(C)C)nc5c3CC(C)(C)CC5)CCO4)c(F)cc2[nH]1 [Example 342, 1-{4-[7-(6-fluoro-2-methyl-1H-benzimidazol-5-yl)-2,3-dihydro-1,4-benzoxazepin-4(5H)-yl]-6,6-dimethyl-5,6,7,8-tetrahydroquinazolin-2-yl}-N,N-dimethylmethanamine] | 250 to 1000 nM
CC1(C)CCc2ncnc(N3CCOc4ccc(-c5cnc(N)c(S(=O)(=O)CCCO)c5)cc4C3)c2C1 [Example 430, 3-({2-amino-5-[4-(6,6-dimethyl-5,6,7,8-tetrahydroquinazolin-4-yl)-2,3,4,5-tetrahydro-1,4-benzoazepin-7-yl]pyridin-3-yl}sulfonyl)propan-1-ol] | 10 to 50 nM
Cc1nc2ncc(-c3ccc4c(c3)CN(c3nc(CNCC(F)(F)F)nc5c3CC(C)(C)CC5)CCO4)cc2[nH]1 [Example 591, N-({6,6-dimethyl-4-[7-(2-methyl-1H-imidazo[4,5-b]pyridin-6-yl)-2,3-dihydro-1,4-benzoxazepin-4(5H)-yl]-5,6,7,8-tetrahydroquinazolin-2-yl}methyl)-2,2,2-trifluoroethanamine] | 10 to 50 nM
Cc1nc2ccc(-c3ccc4c(c3)CN(c3nc(CNC5CCC5)nc5c3CC(C)(C)CC5)CCO4)cc2[nH]1 [Example 587, N-({6,6-dimethyl-4-[7-(2-methyl-1H-benzimidazol-6-yl)-2,3-dihydro-1,4-benzoxazepin-4(5H)-yl]-5,6,7,8-tetrahydroquinazolin-2-yl}methyl)cyclobutanamine] | 10 to 50 nM
c1ccc2c(N3CCOc4ccc(-c5ccc6nc(C7CCCCC7)[nH]c6c5)cc4C3)ccnc2c1 [Example 200, 7-(2-cyclohexyl-1H-benzimidazol-6-yl)-4-quinolin-4-yl-2,3,4,5-tetrahydro-1,4-benzoxazepine] | 1000 to 2000 nM
Cc1c(Nc2ccccc2)ncnc1N1CCOc2ccc(-c3cnc4nc(N)[nH]c4c3)cc2C1 [Example 540, 6-{4-[5-methyl-6-(phenylamino)pyrimidin-4-yl]-2,3,4,5-tetrahydro-1,4-benzoxazepin-7-yl}-1H-imidazo[4,5-b]pyridin-2-amine] | 10 to 50 nM
CN1CCN(S(=O)(=O)c2cc(-c3ccc4c(c3)CN(c3ncnc5c3CC(C)(C)CC5)CCO4)cnc2N)CC1 [Example 516, 5-[4-(6,6-dimethyl-5,6,7,8-tetrahydroquinazolin-4-yl)-2,3,4,5-tetrahydro-1,4-benzoxazepin-7-yl]-3-[(4-methylpiperazin-1-yl)sulfonyl]pyridin-2-amine] | 50 to 250 nM
